Laboratory results as given in US20230391760A1, “HETEROCYCLIC GLP-1 AGONISTS” (Gasherbrum Bio, Inc., priority 2020, published 2023).

Biological target: GLP-1 Receptor (Homo sapiens, UniProt P43220)
Assay: GLP-1R agonist cAMP stimulation assay (HEK293/GLP1R/CRE-LUC cells, cAMP dynamic 2 Kit)
Assay type: cell-based
Details: HEK293/CRE-Luc cell line stably expressing the GLP-1 Receptor, 30 min at 37° C.
In short: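 cAMP measured by HTRF competition (d2-labelled cAMP with cryptate antibody, 1 h, room temperature, protected from light). Before that, GLP1R/CRE-Luc HEK293 cells (1000/well) were exposed for 30 min at 37 °C to half-log compound dilutions in DPBS containing IBMX 0.5 mM and BSA 0.1%.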

Sequence of GLP-1 Receptor (P43220 24-463, species assumed): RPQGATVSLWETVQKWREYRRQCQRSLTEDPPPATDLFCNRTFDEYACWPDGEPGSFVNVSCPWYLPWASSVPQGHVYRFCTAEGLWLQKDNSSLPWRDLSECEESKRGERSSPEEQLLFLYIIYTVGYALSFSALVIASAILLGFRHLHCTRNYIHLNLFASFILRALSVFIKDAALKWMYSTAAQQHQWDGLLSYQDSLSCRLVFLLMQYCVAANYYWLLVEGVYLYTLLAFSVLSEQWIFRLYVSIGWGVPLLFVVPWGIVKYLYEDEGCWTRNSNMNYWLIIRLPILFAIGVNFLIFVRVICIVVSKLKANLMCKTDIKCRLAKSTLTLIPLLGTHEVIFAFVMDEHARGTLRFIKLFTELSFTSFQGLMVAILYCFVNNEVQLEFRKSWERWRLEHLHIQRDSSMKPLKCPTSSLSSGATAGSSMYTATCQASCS

Row | EC50 | Compound
1 | 2300 pM | O=c1[nH]c(-c2cc3nc(CN4CCN(c5ccc(F)c(OCc6ccc(Cl)cc6F)c5)CC4)n(C[C@@H]4CCO4)c3cn2)no1 [Compound 439a, 3-{2-[(4-{3-[(4-chloro-2-fluorophenyl)methoxy]-4-fluorophenyl}piperazin-1-yl)methyl]-3-{[(2S)-oxetan-2-yl]methyl}-3H-imidazo[4,5-c]pyridin-6-yl}-4,5-dihydro-1,2,4-oxadiazol-5-one]
2 | 100 pM | Fc1cc(Cl)ccc1COc1cc(C2CCN(Cc3nc4cc(-c5nnc(C(F)(F)F)[nH]5)ncc4n3C[C@@H]3CCO3)CC2F)ccc1F (stereo partly drawn) [Compound 478a, (3,4-trans)-4-{3-[(4-chloro-2-fluorophenyl)methoxy]-4-fluorophenyl}-3-fluoro-1-[(3-{[(2S)-oxetan-2-yl]methyl}-6-[5-(trifluoromethyl)-4H-1,2,4-triazol-3-yl]-3H-imidazo[4,5-c]pyridin-2-yl)methyl]piperidine]
3 | 280 pM | CO[C@@H](C)Cn1c(CN2CCC(c3cccc4c3O[C@@](C)(c3ccc(C#N)cc3F)O4)CC2)nc2cc(-c3noc(=O)[nH]3)ncc21 [Compound 443a, 3-fluoro-4-[(2S)-4-[1-({3-[(2S)-2-methoxypropyl]-6-(5-oxo-4,5-dihydro-1,2,4-oxadiazol-3-yl)-3H-imidazo[4,5-c]pyridin-2-yl}methyl)piperidin-4-yl]-2-methyl-2H-1,3-benzodioxol-2-yl]benzonitrile]
4 | 74 pM | O=C(Nc1ccc2c(c1)nc(CN1CCC(c3cccc(OCc4ccc(Cl)cc4F)n3)CC1)n2C[C@@H]1CCO1)C1CCCOC1 (single isomer, unassigned) [Compound 154b]
5 | 760 pM | CO[C@H](C)Cn1c(CN2CCC(c3cccc4c3OC(C)(c3ccc(Cl)cn3)O4)CC2)nc2cc(-c3noc(=O)[nH]3)ncc21 (stereo partly drawn) [Compound 427a, 3-[2-({4-[2-(5-chloropyridin-2-yl)-2-methyl-2H-1,3-benzodioxol-4-yl]piperidin-1-yl}methyl)-3-[(2R)-2-methoxypropyl]-3H-imidazo[4,5-c]pyridin-6-yl]-4,5-dihydro-1,2,4-oxadiazol-5-one]
6 | 98 pM | Fc1cc(Cl)ccc1COc1cc(C2=CCN(Cc3nc4cc(-c5nnc(C(F)(F)F)[nH]5)ncc4n3C[C@@H]3CCO3)CC2)ccc1F [Compound 297a, 4-{3-[(4-chloro-2-fluorophenyl)methoxy]-4-fluorophenyl}-1-[(3-{[(2S)-oxetan-2-yl]methyl}-6-[5-(trifluoromethyl)-4H-1,2,4-triazol-3-yl]-3H-imidazo[4,5-c]pyridin-2-yl)methyl]-1,2,3,6-tetrahydropyridine]
7 | 74 pM | CC1(c2ccc(F)cc2F)Oc2cccc(C3CCN(Cc4nc5cc(-c6nnc(C(F)(F)F)[nH]6)ccc5n4C[C@@H]4CCO4)CC3)c2O1 (stereo partly drawn) [Compound 259a, 2-({4-[2-(2,4-difluorophenyl)-2-methyl-2H-1,3-benzodioxol-4-yl]piperidin-1-yl}methyl)-1-{[(2S)-oxetan-2-yl]methyl}-5-[5-(trifluoromethyl)-4H-1,2,4-triazol-3-yl]-1H-1,3-benzodiazole]
8 | 130 pM | Cc1nnc(-c2cc3nc(CN4CCC(c5cccc6c5OC[C@@H](c5ccc(Cl)cc5)O6)CC4)n(C[C@@H]4CCO4)c3cn2)[nH]1 [Compound 424a, 4-[(2R)-2-(4-chlorophenyl)-2,3-dihydro-1,4-benzodioxin-5-yl]-1-{[6-(5-methyl-4H-1,2,4-triazol-3-yl)-3-{[(2S)-oxetan-2-yl]methyl}-3H-imidazo[4,5-c]pyridin-2-yl]methyl}piperidine]
9 | 78 pM | N#Cc1ccc(COc2cccc(C3=CCN(Cc4nc5cc(-c6noc(=O)[nH]6)cnc5n4C[C@@H]4CCO4)CC3)n2)c(F)c1 [Compound 322a, 3-fluoro-4-[({1′-[(3-{[(2S)-oxetan-2-yl]methyl}-6-(5-oxo-4,5-dihydro-1,2,4-oxadiazol-3-yl)-3H-imidazo[4,5-b]pyridin-2-yl)methyl]-1′,2′,3′,6′-tetrahydro-[2,4′-bipyridin]-6-yl}oxy)methyl]benzonitrile]
10 | 12 pM | Fc1cc(Cl)ccc1COc1nc(C2CCN(Cc3nc4cc(-c5nnc(C(F)(F)F)[nH]5)ncc4n3C[C@@H]3CCO3)CC2)ccc1F [Compound 472a, 2-[(4-chloro-2-fluorophenyl)methoxy]-3-fluoro-6-{1-[(3-{[(2S)-oxetan-2-yl]methyl}-6-[5-(trifluoromethyl)-4H-1,2,4-triazol-3-yl]-3H-imidazo[4,5-c]pyridin-2-yl)methyl]piperidin-4-yl}pyridine]
11 | 630 pM | CC(C(=O)Nc1ccc2c(c1)nc(CN1CCC(c3cccc(OCc4ccc(Cl)cc4F)n3)CC1)n2C[C@@H]1CCO1)n1ccnc1 (stereo partly drawn) [Compound 195a, N-{2-[(4-{6-[(4-chloro-2-fluorophenyl)methoxy]pyridin-2-yl}piperidin-1-yl)methyl]-1-{[(2S)-oxetan-2-yl]methyl}-1H-1,3-benzodiazol-5-yl}-2-(1H-imidazol-1-yl)propanamide]
12 | 8800 pM | Fc1cc(Cl)ccc1COc1cccc(C2CCN(Cc3nc4cc(-c5ccn(C6CCCOC6)n5)ccc4n3C[C@@H]3CCO3)CC2)n1 (stereo partly drawn) [Compound 216a, 2-[(4-{6-[(4-chloro-2-fluorophenyl)methoxy]pyridin-2-yl}piperidin-1-yl)methyl]-5-[1-(oxan-3-yl)-1H-pyrazol-3-yl]-1-{[(2S)-oxetan-2-yl]methyl}-1H-1,3-benzodiazole]
13 | 970 pM | CC1(c2ccc(Cl)cc2)Oc2cccc(C3CCN(Cc4nc5cc(-c6noc(=O)[nH]6)cnc5n4C[C@@H]4CCO4)CC3)c2O1 (stereo partly drawn) [Compound 330a, 3-[2-({4-[2-(4-chlorophenyl)-2-methyl-2H-1,3-benzodioxol-4-yl]piperidin-1-yl}methyl)-3-{[(2S)-oxetan-2-yl]methyl}-3H-imidazo[4,5-b]pyridin-6-yl]-4,5-dihydro-1,2,4-oxadiazol-5-one]
14 | 230 pM | Cc1nc(-c2noc(=O)[nH]2)cc2nc(CN3CCC(c4cccc5c4O[C@@](C)(c4ccc(Cl)cc4F)O5)CC3)n(C[C@@H]3CCO3)c12 [Compound 434a, 3-[2-({4-[(2S)-2-(4-chloro-2-fluorophenyl)-2-methyl-2H-1,3-benzodioxol-4-yl]piperidin-1-yl}methyl)-4-methyl-3-{[(2S)-oxetan-2-yl]methyl}-3H-imidazo[4,5-c]pyridin-6-yl]-4,5-dihydro-1,2,4-oxadiazol-5-one]
15 | 240 pM | CO[C@H](C)Cn1c(CN2CCC(c3cccc4c3O[C@@](C)(c3ccc(Cl)cn3)O4)CC2)nc2cc(-c3nnn[nH]3)ncc21 [Compound 429a, 5-chloro-2-[(2S)-4-[1-({3-[(2R)-2-methoxypropyl]-6-(1H-1,2,3,4-tetrazol-5-yl)-3H-imidazo[4,5-c]pyridin-2-yl}methyl)piperidin-4-yl]-2-methyl-2H-1,3-benzodioxol-2-yl]pyridine]
16 | 230 pM | O=C(Nc1ccc2c(c1)nc(CN1CCC(c3cccc(OCc4ccc(Cl)cc4F)n3)CC1)n2C[C@@H]1CCO1)C1CC12CCC2 (stereo partly drawn) [Compound 193a, N-{2-[(4-{6-[(4-chloro-2-fluorophenyl)methoxy]pyridin-2-yl}piperidin-1-yl)methyl]-1-{[(2S)-oxetan-2-yl]methyl}-1H-1,3-benzodiazol-5-yl}spiro[2.3]hexane-1-carboxamide]
17 | 480 pM | Fc1cc(Cl)ccc1COc1ncccc1C1=CCN(Cc2nc3cc(-c4nnc(C(F)(F)F)[nH]4)ccc3n2C[C@@H]2CCO2)CC1 [Compound 390a, 2-[(4-chloro-2-fluorophenyl)methoxy]-1′-[(1-{[(2S)-oxetan-2-yl]methyl}-5-[5-(trifluoromethyl)-4H-1,2,4-triazol-3-yl]-1H-1,3-benzodiazol-2-yl)methyl]-1′,2′,3′,6′-tetrahydro-3,4′-bipyridine]
18 | 570 pM | Cc1cnccc1C(=O)Nc1ccc2c(c1)nc(CN1CCC(c3cccc(OCc4ccc(Cl)cc4F)n3)CC1)n2C[C@@H]1CCO1 [Compound 178a, N-{2-[(4-{6-[(4-chloro-2-fluorophenyl)methoxy]pyridin-2-yl}piperidin-1-yl)methyl]-1-{[(2S)-oxetan-2-yl]methyl}-1H-1,3-benzodiazol-5-yl}-3-methylpyridine-4-carboxamide]
19 | 300 pM | CC1(c2ccc(Cl)cc2F)Oc2ccc(F)c(C3CCN(Cc4nc5cc(-c6nnc(C(F)(F)F)[nH]6)ncc5n4C[C@@H]4CCO4)CC3)c2O1 (stereo partly drawn) [Compound 458a, 4-[2-(4-chloro-2-fluorophenyl)-5-fluoro-2-methyl-2H-1,3-benzodioxol-4-yl]-1-[(3-{[(2S)-oxetan-2-yl]methyl}-6-[5-(trifluoromethyl)-4H-1,2,4-triazol-3-yl]-3H-imidazo[4,5-c]pyridin-2-yl)methyl]piperidine]
20 | 500 pM | O=c1[nH]c(-c2cc3nc(CN4CC=C(c5cccc(OCc6ccc(Cl)cc6F)c5)CC4)n(C[C@@H]4CCO4)c3cn2)no1 [Compound 308a, 3-{2-[(4-{3-[(4-chloro-2-fluorophenyl)methoxy]phenyl}-1,2,3,6-tetrahydropyridin-1-yl)methyl]-3-{[(2S)-oxetan-2-yl]methyl}-3H-imidazo[4,5-c]pyridin-6-yl}-4,5-dihydro-1,2,4-oxadiazol-5-one]
21 | 72 pM | CO[C@H](C)Cn1c(CN2CCC(c3cccc4c3O[C@@](C)(c3ccc(Cl)cc3F)O4)CC2)nc2cc(-c3noc(=O)[nH]3)ncc21 [Compound 419a, 3-[2-({4-[(2S)-2-(4-chloro-2-fluorophenyl)-2-methyl-2H-1,3-benzodioxol-4-yl]piperidin-1-yl}methyl)-3-[(2R)-2-methoxypropyl]-3H-imidazo[4,5-c]pyridin-6-yl]-4,5-dihydro-1,2,4-oxadiazol-5-one]
22 | 4300 pM | C[C@]1(c2ccc(Cl)cc2F)Oc2cccc(C3CCN(Cc4nc5cc(-c6noc(=O)[nH]6)cnc5n4C[C@@H]4CCOC4)CC3)c2O1 [Compound 398a, 3-[2-({4-[(2S)-2-(4-chloro-2-fluorophenyl)-2-methyl-2H-1,3-benzodioxol-4-yl]piperidin-1-yl}methyl)-3-{[(3S)-oxolan-3-yl]methyl}-3H-imidazo[4,5-b]pyridin-6-yl]-4,5-dihydro-1,2,4-oxadiazol-5-one]
